# From patent publication US20090214607A1, “Topical use of teprenone” (SEDERMA, priority 2005, published 2009)
# Key:
# [1] = Lipid peroxidation of liposomes using H2O2+FeCl2; assay type: biochemical; details: for Variation of peroxydation: vs negative control
# Description: (§1) In order to determine the action of teprenone as per the invention, the effect of the active substance on the lipid peroxidation of liposomes was analyzed. The liposomes were used to model cutaneous lipids.
# In this method, liposomes are exposed to the test compound and a Fenton oxidative system. The peroxidation is determined by spectrophotometry. Trolox, a known anti-free radical agent, is used as the positive control at the same molar concentration as a teprenone.
# [2] = Lipid peroxidation of liposomes using UVA radiation; assay type: biochemical; details: UVA induced, vs negative control
# Description: as §1
# In this method, liposomes are exposed to the test compound and then to UV A radiation. Peroxidation is determined by spectrophotometry at 233 nm.
# Hsp70 = Hsp70 immunolabeling in UVB-irradiated human skin explants; assay type: cell-based; details: for Number of Hsp70 positive cells/cm: UVB 2 J/cm2, n = 3
# Text: (§2) Heat Schock proteins (Hsp) are cellular protective molecules which contribute to the correct proteinic folding, thus preserving the protein activity. Hsp 27 is a protective chaperone protein very present in the keratinocytes at the basal state. In situation of UV stress, cell increases its rate of protection and Hsp 27 is strongly overexpressed. Hsp70 is a chaperone protein less expressed in a basal state but induced in response to the UV, thermics, mechanics or infectious stress.
# (§3) Human skin explants are treated in a similar way to the previous experiment (protection on the catalase activity): taken from a plastic surgery, they are cultivated for 48 h in the presence or not, for control, of teprenone (or trolox) at various concentrations, then irradiated or not using a source UVB (2 J/cm2). After irradiation skin explants were post-treated (24 h) or not with teprenone (or trolox) at the same concentrations.
# (§4) Explants were embedded in OCT, sectioned using a freezing microtome, and slide mounted. The mounted specimens were immunolabeled with anti-human Hsp antibody.
# Hsp27 = Hsp27 immunolabeling in UVB-irradiated human skin explants; assay type: cell-based; details: for Number of Hsp27 positive cells/cm: UVB 2 J/cm2, n = 3
# Text: as §2, §3, §4
# [3] = test system: Normal human fibroblasts (FHN); assay: Replicative capacity of serially sub-cultured fibroblasts; assay type: cell-based
# Text: Normal human fibroblasts are able to divide a limited number of times: according to the literature, 30 times approximately. Progressively, the cells change morphology and become less and less suited to the mitosis: time between 2 mitoses lengthens, the cellular metabolism is very slowed down, the cells are known as senescent.
# Normal human fibroblasts (FHN) are cultivated until the “12th cycle” in order to begin the tests with cells already part-time from the duration life (=12 cycles of replication on 30 cycles), they are then separate in 3 batches: The batch control, the batch treated daily by 1 μM of teprenone and the batch daily treated with 3 μM of teprenone.
# Each plate contains ˜50 000 cells and the cells cultivated in medium DMEM, until confluency or until obtaining enough cells for the taking away of 50 000 cells necessary to the following cycle. At each time the cells are collected by trypsinisation, are counted, and aliquot of 50 000 cells seeded for the following cycle. This cycle is repeated until it is no more possible to obtain cellular multiplication.
# VEGF = VEGF in supernatant of γ-irradiated NHEK cells (ELISA); assay type: cell-based, human; details: for decrease of VEGF: vs irradiated control; for expression VEGF: γ-irradiation 5 Gγ, 4 days
# Description: In order to determine the action of teprenone as per the invention, the effect of GGA on the IL8 and VEGF expression was investigated in the supernatants of irradiated (with 5 Gy) NHEK cells. After γ-irradiation, NHEK cells are treated during 4 days with or without GGA at differents concentrations. The amount of IL8 and VEGF present in the cells supernatant is determined with ELISA method.
# [4] = test system: human primary keratinocytes; assay: Gene expression profile by DNA array (CodeLink Whole Genome bioarray); assay type: cell-based
# Description: Human primary keratinocyte cultures were prepared and incubated in the presence or absence of teprenone. The culture supernatants were withdrawn and the cell monolayers frozen at −80° C. The un-thawed monolayers were exposed to lysis buffer and the cell RNA extracted using a commercially-available kit (Roche kit V6: total RNA extraction). Solvent controls underwent the same extraction process in parallel. The expression profiles of the gene sequences were determined using a CodeLink Whole Genome bioarray for each sample of purified RNA. The values obtained were normalized relative to the controls.
structure (smiles),measurement,setting,value
"CC(=O)CCC=C(C)CCC=C(C)CCC=C(C)CCC=C(C)C [Teprenone, 6,10,14,18-tetramethyl-5,9,13-nonadecatetren-2-one]",Variation of peroxydation,[1]; concentration 3 · 10^−2%,−75%
same,Variation of peroxydation,[1]; concentration 3 · 10^−3%,−26%
same,Variation of peroxydation,[1]; concentration 3 · 10^−4%,−16%
same,decrease in peroxidation,[1]; concentration 3.10^−2%,75%
same,Variation of peroxydation,[1]; concentration 10^−2%,−39%
same,Variation of peroxydation,[1]; concentration 10^−3%,−20%
same,Variation of peroxydation,[2]; concentration 3 · 10^−2%,−77%
same,Variation of peroxydation,[2]; concentration 3 · 10^−3%,−10%
same,Variation of peroxydation,[2]; concentration 3 · 10^−4%,−22%
same,Variation of peroxydation,[2]; concentration 10^−2%,−52%
same,Variation of peroxydation,[2]; concentration 10^−3%,−12%
same,Hsp70: Protection vs. irradiated (%),Hsp70; 0.05 mM,66%
same,Hsp70: Protection vs. irradiated (%),Hsp70; 0.1 mM,100%
same,Hsp70: Protection vs. irradiated (%),"Hsp70; 0.1 mM, listed as GGA",100%
same,Number of Hsp70 positive cells/cm,Hsp70; 0.05 mM,130 cells/cm
same,Number of Hsp70 positive cells/cm,Hsp70; 0.1 mM,40 cells/cm
same,Hsp27: Protection vs. irradiated (%),Hsp27; 0.05 mM,50%
same,Hsp27: Protection vs. irradiated (%),Hsp27; 0.1 mM,75%
same,Hsp27: Protection vs. irradiated (%),"Hsp27; 0.1 mM, listed as GGA",75%
same,Number of Hsp27 positive cells/cm,Hsp27; 0.05 mM,530 cells/cm
same,Number of Hsp27 positive cells/cm,Hsp27; 0.1 mM,400 cells/cm
same,cycle until which the fibroblasts remained more active,[3]; 1 μM,22
same,"entry into marked senescence, later than the controls",[3]; 1 μM,44 days
same,Nb cells (×10^3),"[3]; 1 μM, cycle 13 (7 d)",204 ×10^3
same,Nb cells (×10^3),"[3]; 1 μM, cycle 14 (8 d)",214 ×10^3
same,Nb cells (×10^3),"[3]; 1 μM, cycle 15 (11 d)",199 ×10^3
same,Nb cells (×10^3),"[3]; 1 μM, cycle 16 (14 d)",186 ×10^3
same,Nb cells (×10^3),"[3]; 1 μM, cycle 17 (13 d)",164 ×10^3
same,Nb cells (×10^3),"[3]; 1 μM, cycle 18 (18 d)",197 ×10^3
same,Nb cells (×10^3),"[3]; 1 μM, cycle 19 (17 ds)",185 ×10^3
same,Nb cells (×10^3),"[3]; 1 μM, cycle 20 (14 d)",124 ×10^3
same,Replicative capac vs control,"[3]; 1 μM, cycle 20 (14 d)",+13
same,Nb cells (×10^3),"[3]; 1 μM, cycle 21 (22 d)",130 ×10^3
same,Replicative capac vs control,"[3]; 1 μM, cycle 21 (22 d)",+38
same,Nb cells (×10^3),"[3]; 1 μM, cycle 22 (20 d)",146 ×10^3
same,Replicative capac vs control,"[3]; 1 μM, cycle 22 (20 d)",+117
same,Nb cells (×10^3),"[3]; 1 μM, cycle 23 (36 d)",105 ×10^3
same,Replicative capac vs control,"[3]; 1 μM, cycle 23 (36 d)",+25
same,Nb cells (×10^3),"[3]; 1 μM, cycle 24 (28 d)",66 ×10^3
same,Replicative capac vs control,"[3]; 1 μM, cycle 24 (28 d)",ns
same,Nb cells (×10^3),"[3]; 1 μM, cycle 25 (77 d)",59 ×10^3
same,Replicative capac vs control,"[3]; 1 μM, cycle 25 (77 d)",ns
same,cycle until which the fibroblasts retained their replicative potential,[3]; 3 μM,24
same,fibroblast lifetime extended with no impairment of replicative capacity,[3]; 3 μM,100 days
same,"replicative potential retained, later than the controls",[3]; 3 μM,100 days
same,activity of treated cells vs control cells after replicative potential began to subside,"[3]; 3 μM, after cycle 24",almost two-fold more active than the control cells
same,Nb cells (×10^3),"[3]; 3 μM, cycle 13 (7 d)",213 ×10^3
same,Nb cells (×10^3),"[3]; 3 μM, cycle 14 (8 d)",195 ×10^3
same,Nb cells (×10^3),"[3]; 3 μM, cycle 15 (11 d)",140 ×10^3
same,Nb cells (×10^3),"[3]; 3 μM, cycle 16 (14 d)",167 ×10^3
same,Nb cells (×10^3),"[3]; 3 μM, cycle 17 (13 d)",166 ×10^3
same,Nb cells (×10^3),"[3]; 3 μM, cycle 18 (18 d)",192 ×10^3
same,Nb cells (×10^3),"[3]; 3 μM, cycle 19 (17 ds)",198 ×10^3
same,Nb cells (×10^3),"[3]; 3 μM, cycle 20 (14 d)",145 ×10^3
same,Replicative capac vs control,"[3]; 3 μM, cycle 20 (14 d)",+33
same,Nb cells (×10^3),"[3]; 3 μM, cycle 21 (22 d)",154 ×10^3
same,Replicative capac vs control,"[3]; 3 μM, cycle 21 (22 d)",+64
same,Nb cells (×10^3),"[3]; 3 μM, cycle 22 (20 d)",157 ×10^3
same,Replicative capac vs control,"[3]; 3 μM, cycle 22 (20 d)",+134
same,Nb cells (×10^3),"[3]; 3 μM, cycle 23 (36 d)",204 ×10^3
same,Replicative capac vs control,"[3]; 3 μM, cycle 23 (36 d)",+99
same,Nb cells (×10^3),"[3]; 3 μM, cycle 24 (28 d)",115 ×10^3
same,Replicative capac vs control,"[3]; 3 μM, cycle 24 (28 d)",+79
same,Nb cells (×10^3),"[3]; 3 μM, cycle 25 (77 d)",95 ×10^3
same,Replicative capac vs control,"[3]; 3 μM, cycle 25 (77 d)",82
same,decrease of VEGF,VEGF; 1 · 10^−4%,−47%
same,decrease of VEGF,VEGF; 3 · 10^−5%,−30%
same,expression VEGF,VEGF; 1 · 10^−4%,3 pg/10⁵ cells
same,expression VEGF,VEGF; 3 · 10^−5%,3.5 pg/10⁵ cells
same,expression of CBX5/HP1,[4]; 24 hour period,jointly activated
same,expression of CDK2,[4]; 24 hour period,jointly activated
same,expression of ELAVL1,[4]; 24 hour period,activation
same,expression of ERBIN gene,[4]; 24 hour period,up-regulated
same,expression of PTPRF-interacting gene,[4]; 24 hour period,up-regulated
same,expression of SERTAD3,[4]; 24 hour period,activated
same,expression of gene SCLY,[4]; 24 hour period,significantly up-regulated
same,expression of gene for heat shock protein HSP 27,[4]; 24 hour period,induction
same,expression of gene for heat shock protein HSP B3,[4]; 24 hour period,induction
same,"genes activated, effect on cell lipid content",[4]; cholesterol efflux and fatty acid synthesis,6 genes
